Measurements as given in US20200064357A1, “METHODS FOR DETERMINING AND MONITORING GASTROINTESTINAL INFLAMMATION” (Protagonist Therapeutics, Inc., priority 2016, published 2020).

Test system: Sprague-Dawley rats
Assay: Biomarkers in colon of TNBS-induced acute colitis rats (Example E1)
Assay type: in vivo, rat
Details: protein by ELISA, vs vehicle treated controls, Peptide 993 65 mg/kg/day; for IL-22 level in colon / MPO level in colon: Peptide 980 37 mg/kg/day
Excerpt: The effect of treatment with peptide inhibitors of IL23R on inflammatory markers associated with IL23 signaling was examined in a rat model of acute colitis. Acute colitis was induced in Sprague-Dawley rats by a single intra-rectal instillation of 2,4,6-Trinitrobenzenesulfonic acid (TNBS) followed by efficacy analysis at day seven. Pharmacodynamic (PD) biomarkers were examined using enzyme-linked immunosorbent assay (ELISA), quantitative reverse transcription polymerase chain reaction, or immunohistochemistry analysis of colon, feces, or serum samples obtained from colitic rats treated with Peptide 993, Peptide 1185, or Peptide 980.
Acute colitis was induced by providing 7-week-old female Sprague-Dawley rats with various dosages of 64 mg/kg or 48 mg/kg of TNBS in 50% ethanol (TNBS/ethanol) administered intrarectally at Day 0. Peptide inhibitors were administered orally two or three times a day at various dosages and were provided in drinking water at various dosages, for 8 days starting approximately 24 hours (Day −1) prior TNBS inoculation.
Levels of a number of inflammatory biomarkers were examined in the colons. The distal colon tissue samples, designated for protein expression analysis, were flash frozen after collection. For protein extraction, the samples were thawed, weighed and homogenized in the extraction buffer (PBS pH 7.2 supplemented with Protease Inhibitors, 3× volume:weight). The homogenates were centrifuged at 13 krpm at 4° C. for 15 minutes, a total of two times to remove the debris. The supernatants were saved in multiple aliquots in −80° C. and subsequently used for protein expression analysis on ELISA. The total protein in each sample was quantified using BCA assay. MPO, IL-10, IL-6, IL-17A and IL-22 biomarker protein expression in the distal colon samples was analyzed using commercially available rat ELISA kits.

Compound	IL-17A level in colon	IL-22 level in colon	MPO level in colon
CC(=O)NCCCCC(NC(=O)C1(NC(=O)C(Cc2ccc3ccccc3c2)NC(=O)C(Cc2ccc(OCCN)cc2)NC(=O)C2NC(=O)C(CCC(N)=O)NC(=O)C(Cc3c[nH]c4ccccc34)NC(=O)C(C(C)O)NC(=O)C(CC(N)=O)NC(=O)C(NC(C)=O)C(C)(C)SSC2(C)C)CCOCC1)C(=O)NC(CC(N)=O)C(=O)NC(CC(N)=O)C(N)=O (centres unmarked) [Peptide 1185, Ac-cyclo[[Pen]-NTWQ-[Pen]]-[Phe[4-(2-aminoethoxy)]]-[2-Nal]-[4-amino-4-carboxy-tetrahydropyran]-[Lys(Ac)]-NN-NH2]	did not significantly reduce	did not significantly reduce	did not significantly reduce
Ac-cyclo[[Abu]-QTWQC]-[Phe[4-(2-aminoethoxy)]]-[2-Nal]-[4-amino-4-carboxy-tetrahydropyran]-ENN-NH2 [Peptide 980]		reduced	reduced
